# Experimental data from patent publication US10806798B2, “Compound with effects of thrombolysis, free radical scavenging and thrombus-targeting” (Shanghai Lumosa Therapeutics Co., Ltd., priority 2012, dated 2020).
# Tested on: rats with stroke
# Experiment: Successive treatments with 1 μmol/kg Ie starting 6 h after the onset of stroke (Zealonga scores)
# Assay type: in vivo, SD rats
# Description: The efficacy was represented by neural function scores, and a lower score indicates higher efficacy. A 10% chloral hydrate solution was injected intraperitoneally into male SD rats at a dosage of 400 mg/kg body weight for anesthesia. A longitudinal open incision was made at the center of the neck, and the right common carotid artery trunk was dissected (about 3 cm in length). Carotid external artery branches were each dissected and ligated at the hyoid level, and the carotid internal artery was dissected at the swollen part of the neck. The open incision in the carotid internal artery and the proximal end of the common carotid artery were occluded respectively with noninvasive arterial clips, and the distal end of the carotid external artery was ligated. A catheter containing 0.5 mL thrombus suspension in normal saline was inserted in the carotid external artery trunk. At the same time when the clip on the carotid internal artery was released, the 0.5 mL thrombus suspension in normal saline in the catheter slowly flew from the carotid external artery to its proximal end, and then was injected into the arteries in brain through the carotid internal artery. Subsequently, the proximal end of the carotid artery was ligated, the arterial clips on the carotid internal artery and the common carotid artery were released, and blood flow was restored. After the wound was stitched up, 20,000 IU penicillin was intramuscularly injected for prevention from infection. After 6 h, compound Ie in normal saline (at a dosage of 1 μmol/kg, n=11), urokinase in normal saline (at a dosage of 20000 IU/kg, n=6) or tPA in normal saline (at a dosage of 3 mg/kg, n=6) was infused through the tail vein. Infusion of compound Ie in normal saline through rat tail vein was carried out once per day for 6 consecutive days, observed for 7 days. The rats were compared to themselves each day, and evaluated for the degree of damage in neural function by the Zealonga method. Alternatively, infusion of urokinase in normal saline through rat tail vein was carried out once per day for two consecutive days, the rats were compared to themselves each day, and evaluated for the degree of damage in neural function by the Zealonga method. Alternatively, infusion of tPA in normal saline through rat tail vein was carried out once per day for two consecutive days, the rats were compared to themselves each day, and evaluated for the degree of damage in neural function by the Zealonga method. A score of 0 indicated no sign of loss in neural function, 1 indicated the front limbs on the undamaged side could not stretch out, 2 indicated walking toward the undamaged side, 3 indicated tail-chasing walking in circles toward the undamaged side, 4 indicated involuntary walking with disturbance of consciousness, and 5 indicated death.
# [1] = Day 1, urokinase 20000 IU/kg once per day from 6 h after stroke onset, n=6
# [2] = Day 2, urokinase 20000 IU/kg once per day from 6 h after stroke onset, n=6
substance,measurement,setting,value
urokinase,number of rats scored Score 1,[1],1 rat rats
same,number of rats scored Score 2,[1],1 rat rats
same,number of rats scored Score 3,[1],4 rats
same,number of rats scored Score 0,[2],1 rat rats
same,number of rats scored Score 2,[2],1 rat rats
same,rats died,"out of 6 rats, within 24 h, urokinase 20000 IU/kg each day from 6 h after stroke onset",4
same,autopsy on the dead rats,urokinase 20000 IU/kg each day from 6 h after stroke onset,"hemorrhage in internal organs, particularly severe hemorrhage in lungs"
